# Reference: patent US20130030025A1, “USE OF POTASSIUM CHANNEL BLOCKERS TO TREAT CEREBRAL PALSY” (priority 2011, published 2013)
# Experiments:
# [1] = Body weight of animals after MCAO; type: in vivo, Sprague Dawley rats
# Method: Animals: 45 male Sprague Dawley Rats, 300-400 g (obtained from Charles River Laboratories, which arrived 7-10 days before surgery at 250-275 g) were used.
# Treatment groups: Dosing was started 4 weeks after pMCAO surgery. During these 4 weeks, weekly behavioral assessments, as defined below, were performed. Two dose levels of 4-AP plus vehicle control were assessed, with treatment starting at 4 weeks after ischemic event. All dosing was via gastric gavage, volume not to exceed 2 mL/kg. Animals were given the first dose and behavioral assessments were performed starting 60 minutes after dosing. Animals then received the second dose that day at the appropriate time and b.i.d (preferably every 12 hours) thereafter for 2 more days (3 total days of dosing, 5 total doses). One hour after the 5th dose, animals were subjected to behavioral assessments as defined below. Following the final behavioral assessment, drug was withdrawn for 10 or 11 days, behavior was re-assessed, and then animals were re-challenged with a cross-over treatment (Phase II of Table 1B) as described in Tables 1A, 1B, followed by the same behavioral testing and dosing regimen. This cross-over was repeated one more time as well (Phase III of Table 1B) (see FIG. 2).
# [2] = typical; (94 ng·mL^−1); cited from earlier work
structure (smiles),measurement,setting,value
"Nc1ccncc1 [4-AP, 4-aminopyridine]","Weight (g), Mean","[1]; Group I, D30, first dosing phase (high dose, inferred)",453.1 g
same,"Weight (g), Mean","[1]; Group I, D32, first dosing phase (high dose, inferred)",436.3 g
same,"Weight (g), Mean","[1]; Group I, D44, second dosing phase (low dose, inferred)",476.2 g
same,"Weight (g), Mean","[1]; Group I, D46, second dosing phase (low dose, inferred)",471.1 g
same,"Weight (g), Mean","[1]; Group II, D30, first dosing phase (low dose, inferred)",446.0 g
same,"Weight (g), Mean","[1]; Group II, D32, first dosing phase (low dose, inferred)",438.1 g
same,"Weight (g), Mean","[1]; Group II, D58, third dosing phase (high dose, inferred)",500.9 g
same,"Weight (g), Mean","[1]; Group II, D60, third dosing phase (high dose, inferred)",483.0 g
same,"Weight (g), Mean","[1]; Group III, D44, second dosing phase (high dose, inferred)",471.9 g
same,"Weight (g), Mean","[1]; Group III, D46, second dosing phase (high dose, inferred)",451.0 g
same,"Weight (g), Mean","[1]; Group III, D58, third dosing phase (low dose, inferred)",494.9 g
same,"Weight (g), Mean","[1]; Group III, D60, third dosing phase (low dose, inferred)",485.1 g
same,plasma concentrations obtained in clinical studies,[2],< 1000 nM
